Data reported in the NIST ThermoML archive (doi:10.1016/j.jct.2008.12.003).
± gives the expanded uncertainty stated by the source.

Settings: 101.33 kPa, Liquid, Pycnometric method

Compound	mass density (303.15 K)	mass density (313.15 K)	mass density (323.15 K)	mass density (333.15 K)	mass density (343.15 K)
OCCCOCCCO [4-oxa-1,7-heptanediol]	1014 ± 1 kg/m3	1007 ± 1 kg/m3	999 ± 1 kg/m3	991 ± 1 kg/m3	984 ± 1 kg/m3
OCCOCCO [diethylene glycol]	1109 ± 1 kg/m3	1103 ± 1 kg/m3	1095 ± 1 kg/m3	1088 ± 1 kg/m3	1081 ± 1 kg/m3
